The subject of data set [1] is UV irradiated BALB-C mice (skin cancers). The experiment in a line: clinically detectable skin tumors and mortality in UV irradiated and unirradiated BALB-C mice. The data set is classed as in vivo, BALB-C female mice. From the text: (§1) To determine the effectiveness of selenium supplementation in the form of topical application and oral administration of L-selenomethionine in providing protection for ultraviolet radiation-induced skin damage, 120 BALB-C female mice and 40 female Skh:2 hairless, pigmented, dark-eyed mice were obtained and separated into treatment groups as follows:
(§2) During the treatment, the BALB-C mice were shaved on the back one per week. 100 λ of a composition according to the invention in the form of an oil-in-water emulsion location containing 0.02% L-selenomethionine was applied three times a week to the backs and ears of the mice for a period of one week prior to beginning irradiation with ultraviolet light. The lotion carrier was formulated from an oil phase containing 21/2% polypropylene glycol-3-myristyl ether, 2% squalane, 0.5% safflower oil, 1% Myrj 52S emulsifier, 0.75% cetyl alcohol, 0.3% SPAN-60, 6.5% Amercol L101, 0.5% Lanocerin, 1% glyceral monostearate, 0.1% preservative, 1% Silicone 200, 1% stearic acid, and 0.5% isostearic acid; and an aqueous phase containing 68.5% distilled water, 0.75% triethanolamine, 5% propylene glycol, 0.3% preservative, 0.1% allantoin, 0.4% Germal II dissolved in 2% water, and 5% of Carbopol 941 (2.5% solution). Each 100 λ application of the composition penetrated the skin within a period of ten minutes. The composition continued to be applied thirty minutes before each thrice weekly irradiation.
(§3) Maintenance exposure times for the BALB-C mice was 50 minutes, while for the Skh:2 mice it was 15 minutes. Irradiation with four Westinghouse FS40 sunlamps was begun at 5 minute exposures, however, and increased by 5 minutes per session for the BALB-C mice and by 2.5 minutes per session for the Skh:2 mice until the respective maintenance exposure level for each type of mouse was reached. The maintenance dose of UV radiation for the BALB-C mice was 0.58 Joules/sq. cm./exposure and for the Skh:2 mice, 0.24 Joules/s. cm./exposure. This irradiation was continued for 28 weeks for the BALB-C mice (about 41 joules/sq. cm. total) and 24 weeks for the Skh:2 mice (about 15 joules/sq. cm. total).
(§4) To evaluate the effectiveness of the selenium supplementation in protecting against skin cancers and the relative merits of the claimed composition, the total number of clinically detectable skin cancers in each group was counted.
Tumors greater than 5 mm in size were also considered, but the observed results were inconclusive due to the complicating effect of mortality in irradiated/non-selenium supplemented mice.

Data set [2] has as its system UV irradiated Skh:2 mice (skin cancers). The experiment in a line: clinically detectable skin tumors in UV irradiated Skh:2 mice. In kind it is in vivo, female Skh:2 hairless, pigmented mice.
Text: as §1
During the treatment, the BALB-C mice were shaved on the back one per week. 100 λ of a composition according to the invention in the form of an oil-in-water emulsion location containing 0.02% L-selenomethionine was applied three times a week to the backs and ears of the mice for a period of one week prior to beginning irradiation with ultraviolet light. […]
as §4

Details of data set [3]: species or system BALBC mice. The following applies: mouse, in vivo, po.
Text: as §1
as §2, with “Each 100 λ application of the composition penetrated the skin within a period of ten minutes. The composition continued to be applied thirty minutes before each thrice weekly irradiation.” left out
(§5) Throughout the studies, the weights of the mice and the total feed and water intake were monitored.

Details of data set [4]: species or system KH2 (Skh:2) mice. Conditions: mouse, in vivo.
Text: as §1
as §2, with “Each 100 λ application of the composition penetrated the skin within a period of ten minutes. The composition continued to be applied thirty minutes before each thrice weekly irradiation.” left out
as §5

The nature of data set [5]: tissue Se in BALBC mice after 3 months. Conditions: mouse, in vivo; for concentration at 2190 h: tissue Se.
Text: as §1, §2, §3
(§6) After 12 weeks, 6 irradiated and 4 non-irradiated BALB-C mice were sacrificed, and at 39 weeks the remaining BALB-C mice were sacrificed. The liver and skin selenium levels were determined.

A short description of another data set: in vivo. The following applies: mouse; for Liver Se / Ventral skin Se / dorsal skin Se: 6552 h. Details: species or system BALBc mice.
Text: as §1, §2, §3, §6

Data set [6] has as its system selenium dependent glutathione peroxidase. Description: hepatic activity of Se-dependent glutathione peroxidase (SeGSHpx). The data set is classed as in vivo, BALBC mice. Conditions: for liver SeGSHpx: 3 months, mean ± SEM; for SeGSHpx: hepatic, 39 weeks.
Text: as §1, §2, §3
(§7) Since selenium is a co-factor for a free-radical quenching enzyme, glutathione peroxidase, the level of two hepatic free-radical quenching enzymes, selenium dependent glutathione peroxidase and superoxide dismutase were also tested.

Another data set relates to superoxide dismutase. The experiment in a line: hepatic activity of superoxide dismutase (SOD). In kind it is in vivo, BALBc mice. Conditions: 39 weeks, pH 10.2. On the procedure: as §7
^1 SOD was measured by the inihibition of the spontaneous oxidation o
epinephrine at pH 10.2; 1 EU = 50% inhibition.

The subject of data set [7] is pigmentation of Skh:2 mice. The experiment in a line: Pigmentation of Skh:2 mice after exposure to UV-irradiation. The data set is classed as in vivo. Conditions: for Pigmentation score: +4 = dark pigmentation, 0 = no pigmentation.
Text: as §1, §2, §3
(§8) This is illustrated in Table 6, where the pigmentation of selenium supplemented mice is reduced.

A short description of data set [8]: absorption into treated human skin. The data set is classed as in vivo. The following applies: topical. From the text:
Topical application of selenoamino acid compositions in accordance with the invention provides a different type of protection than that afforded by conventional sunscreens, such as those containing p-amino benzoic acid, because the selenium is actually absorbed into treated human skin within a period of less than fifteen minutes. Thus, unlike a superficial sunscreen, the protective effect of the selenomethionine is not washed off by, e.g., swimming or sweating. Thus, frequent reapplication is not required to maintain protection, as is the case with known sunscreen products.

The format of data set [9] is in vivo. The following applies: 100 λ of 0.02% L-selenomethionine oil-in-water lotion, mice.
Text: as §2

Data set [10] is described as follows: toxicity in selenium treated mice (hepatic enzymes, alkaline phosphatase). In kind it is in vivo.
Data set [11] relates to ultraviolet radiation-induced skin damage. Description: protection from UV radiation-induced skin damage (inflammation, i.e. sunburn; skin cancers). The data set is classed as in vivo.
Text: as §8

For data set [12] the following is noted: in vivo.
Data set [13] is described as follows: selenium levels in skin, plasma/serum and liver after topical application (general statement).
The conditions of data set [14]: topical; cited from earlier work.
Data set [15] relates to UV-induced skin cancer in hairless mice. The following applies: oral, cited from earlier work.
The mark [16] stands for this setting: unirradiated BALB-C, groups 4-6.

The source of these data is patent US4865840A, “Topical compositions containing selenoamino acids for the prevention of ultraviolet radiation-induced skin damage” (priority 1987, dated 1989).

Regarding `C[Se]CC[C@H](N)C(=O)O` [L-selenomethionine], the UV-induced mortality entry in data set [1] (irradiated BALB-C, groups 1-3, FIG. 3) was “clear reduction in UV-induced mortality”. The “protection against skin cancers (tumors over 3 mm; animals with tumors)” value in data set [1] (irradiated BALB-C, topical and oral, FIGS. 1, 2) is reported as “comparable protection against skin cancers”; in data set [2] (irradiated Skh:2, topical and oral, FIGS. 4, 5), “comparable protection against skin cancers”. For the same compound, the “tumors greater than 5 mm” value in data set [1] (irradiated BALB-C, complicated by mortality of non-supplemented mice) is “inconclusive”. Further, the “deaths during the test period” value in [1] (setting [16]) was “none died”. In data set [1] (setting [16]), the “tumors observed during the experimental period” value was “no tumors observed”. In data set [2] (irradiated Skh:2, control mortality a complicating factor), the “observations based upon 5 mm tumors” value is “superior in the selenium-supplemented mice”. For the same compound, the “effect on feeding habits” value in [3] is listed as “little effect on the feeding habits of the mice”. For the same compound, the “Feed Intake” value in data set [4] is 496.5 ± 31.1 g/mouse. Also, in data set [4], the “Water Intake” value is on record as 594.6 ± 43.0 g/mouse. In addition, the “selenium levels in the localized part of the skin treated” value in data set [5] is reported as “preferential increase in selenium levels in the localized part of the skin actually treated”. The “selenium levels in the treated skin” value in data set [5] is “substantially enhanced selenium levels in the treated skin”. In addition, the “tissue Se, dorsal skin” value in [5] (po, 2190 h) was “.578 ± .061 g/g”. In addition, the “tissue Se, ventral skin” value in data set [5] (po, 2190 h) was “.666 ± .046 g/g”. In addition, the concentration at 2190 h in [5] (po, dorsal skin) is 913 ± 74 ng/g; in data set [5] (po, liver), 1600 ± 186 ng/g; in data set [5] (po, ventral skin), 728 ± 28 ng/g; in data set [5] (topical or ocular, dorsal skin) it was 4520 ± 568 ng/g; in [5] (topical or ocular, liver) it was 2240 ± 353 ng/g; in data set [5] (topical or ocular, ventral skin), 1860 ± 193 ng/g. Besides, the “Liver Se” value in the data set “in vivo” (po) is 1.674 ± .137 ppm; in “in vivo” (topical or ocular) it was 1.481 ± .156 ppm. Also, the results for the “Ventral skin Se” value in the data set “in vivo” (po) and in the data set “in vivo” (topical or ocular) were “.521 ± .018 ppm” and “.777 ± .069 ppm”, respectively. The “dorsal skin Se” value in the data set “in vivo” (po) is “.432 ± .023 ppm”; in “in vivo” (topical or ocular) it was 2.255 ± .582 ppm. Moreover, the concentration at 6552 h in “in vivo” (po, Liver Se) came out at 1560 ± 84 ng/g; in the data set “in vivo” (po, Ventral skin Se), 508 ± 26 ng/g; in “in vivo” (po, dorsal skin Se), 562 ± 40 ng/g; in “in vivo” (topical or ocular, Liver Se), 1420 ± 150 ng/g; in “in vivo” (topical or ocular, Ventral skin Se) it was 843 ± 76 ng/g; in the data set “in vivo” (topical or ocular, dorsal skin Se), 2010 ± 190 ng/g. Also, the “liver SeGSHpx” value turned out to be 125.69 ± 14.59 nmoles NADPH/min/mg in data set [6] (UV +, drinking water, n = 6); 124.15 ± 10.51 nmoles NADPH/min/mg in data set [6] (UV +, topical, n = 6); 141.49 ± 18.71 nmoles NADPH/min/mg in data set [6] (UV -, drinking water, n = 4); 160.18 ± 17.36 nmoles NADPH/min/mg in data set [6] (UV -, topical, n = 4). Moreover, the SeGSHpx is recorded as 114.91 ± 12.20 nmoles NADPH/mg-min in data set [6] (UV +, d.water, n = 20); 85.97 ± 9.92 nmoles NADPH/mg-min in [6] (UV +, topical, n = 13); 57.98 ± 10.82 nmoles NADPH/mg-min in data set [6] (UV -, d.water, n = 4); 83.30 ± 20.83 nmoles NADPH/mg-min in data set [6] (UV -, topical, n = 4). Also, the SOD is reported as 243 ± 67 EU/g in the data set with superoxide dismutase (UV +, d.water, n = 20, 1 EU = 50% inhibition of epinephrine oxidation); 181 ± 51 EU/g with superoxide dismutase (UV +, topical, n = 13, 1 EU = 50% inhibition of epinephrine oxidation); 109 ± 43 EU/g in the data set on superoxide dismutase (UV -, d.water, n = 4, 1 EU = 50% inhibition of epinephrine oxidation); 88 ± 34 EU/g in the data set on superoxide dismutase (UV -, topical, n = 4, 1 EU = 50% inhibition of epinephrine oxidation). In addition, the Pigmentation score came out at 1.7 in data set [7] (oral, week 7, no selenium 3.3); 2.5 in data set [7] (oral, week 12, no selenium 3.5); 2.6 in data set [7] (oral, week 16, no selenium 3.6); 2.3 in data set [7] (topical, week 7, no selenium 3.3); 2.7 in [7] (topical, week 12, no selenium 3.5); 2.6 in data set [7] (topical, week 16, no selenium 3.6). The pigmentation result in data set [7] (selenium supplemented mice, Table 6) is “reduced”. Also, in [8], the “time in which selenium is absorbed into treated human skin” value is given as “less than fifteen”. Besides, in data set [9], the “time in which the composition penetrated the skin” value was “ten”. Further, the toxicity entry in data set [10] is recorded as “no evidence of toxicity”; in data set [13], “without toxicity”. Besides, in [11] (topical), the “protection against less severe UV radiation-induced damage (inflammation i.e. sunburn and pigmentation)” value is “observed to protect the skin against less severe types of ultraviolet radiation-induced damage such as inflammation i.e. sunburn and pigmentation”. The “incidence of skin cancers following exposure to ultraviolet radiation” value in data set [11] (topical application) was “significantly reduce the incidence of skin cancers”. For the same compound, the “selenium concentration in the skin in the area of application” value in [12] was “higher than that attained using a comparable oral dosage of selenium”. For the same compound, the “selenium levels in the plasma and liver” value in data set [12] was “enhanced levels of selenium in the plasma and liver”. In addition, the “selenium levels in the skin” value in data set [12] is “significantly enhanced levels of selenium in the skin”. Further, in [12], the “selenium levels in untreated skin, serum and liver” value was “comparable to those in animal receiving oral doses of selenium”.
Turning to `S=[Se]=S` [Selenium sulfide, selenium sulfide], in data set [14], the “skin penetration / selenium levels in the serum or liver” value was “does not penetrate the skin to give increased levels of selenium in the serum or liver”.
Consider `O=[Se](O)O` [sodium selenite], for which the animal growth rate result in [15] (decreased weight gain relative to controls) is listed as “moderate inhibition of animal growth rate”. For the same compound, in data set [15], the “protection against UV-induced skin cancer” value is reported as “dose-dependent selenium protection against UV-induced skin cancer”; the “resistance to acute and sub-acute effects of UV radiation (inflammation and pigmentation)” value was “more resistant to the acute and sub-acute effects of UV radiation”.
